One test concerns the target T1, EGF receptor (Homo sapiens, UniProt P00533).
T1 construct: subconfluent monolayers of formalin-fixed A431 human carcinoma cells; endogenous in cells; host or cells: A431 human carcinoma cells, formalin-fixed
The experiment in a line: 125I-EGF radioreceptor assay on formalin-fixed A431 human carcinoma cells. In kind it is binding. How it is done:
The fixed cells were washed twice with 0.5 ml of binding buffer (Dulbecco's modified Eagle's medium containing 1 mg/ml of bovine serum albumin and 50 mM 2-[bis(2-hydroxyethyl)amino]ethanesulfonic acid, pH 6.8).
TGF was quantitated in a radioreceptor assay based on receptor cross-reactivity with mouse submaxillary gland epidermal growth factor (mEGF).

The subject of test [1] is normal rat kidney fibroblasts, clone 49F. The test can be described thus: Soft agar growth assay. The format is cell-based. Conditions: tested with up to 10 μg. How it is done:
The assay for colony growth in soft agar, using normal rat kidney fibroblasts, clone 49F, was performed as reported in Todaro et al. (1980) Proc. Natl. Acad. Sci. USA 77, pp. 5258-5262. Lyophilized samples to be tested were reconstituted in 0.5 ml of Dulbecco's modified Eagle's medium, supplemented with 10% calf serum. 1.5 ml of 0.5% (w/v) agar (Difco) in the supplemented medium and 0.5 ml of supplemented medium containing 2.3×10^4 cells were added. 2.3 ml of the resultant mixture were pipetted on a 2-ml base layer (0-5% agar in supplemented medium) in 60-mm Petri dishes (Falcon). The cells were incubated at 37° C. in a humidified 5% CO2 /95% air atmosphere. The assay was read unfixed and unstained at 5 days and at 10-14 days.

The test system of test [2] is 125I-labeled rat TGF binding to EGF receptors of A431 cells. The test can be described thus: Binding of 125I-labeled rat TGF to A431 cells. Set-up: species or system human. How it is done: was synthesized using the solid-phase technique of Ohgak et al. (1983) Journal of Immunol. Meth. 57, pp. 171-184. This oligopeptide was then coupled to keyhole limpet hemocyanin in accordance with the procedure of Baron et al. (1982) Cell 28, pp. 395-404, and used to immunize rabbits (Baron et al. (1982) Cell 28, pp. 395-404) and sheep (Lerner (1982) Nature 299, pp. 592-596). Antisera were assayed against peptide by a peroxidase-linked immunoassay (Kirkegaard and Perry Laboratories, Gaithersberg, Md.) and against homogeneous rat TGF (purified according to Example II above), by immunoprecipitation (Bister et al. (1980) J. Virol. 36, pp. 617-621) and Western blotting techniques (Burnett (1981) Analyt. Biochem. 112, pp. 195-203). Binding of ^125 I-labeled rat TGF and mouse EGF (Bethesda Research Labs, Bethesda, Md.) to A431 cells grown in 96-well microtiter plates was as described in Pross et al. (1977) Proc. Natl. Acad. Sci. U.S.A. 74, pp. 3918-3921.
Human epidermoid carcinoma A431 cells have in excess of 10^6 EGF receptors per cell (Fabricant et al. (1977) Proc. Natl. Acad. Sci. U.S.A. 74, pp. 565-569). TGF competes with EGF for binding to these receptors. Binding of ^125 I-labeled rat TGF to these cells was blocked by an excess of unlabeled EGF and by antiserum to peptide. […]

The test system of test [3] is antiserum against peptide III. The experiment in a line: Radioimmunoassay, inhibition of precipitation of 125I-peptide III. The format is binding, rabbit. How it is done:
Rabbits were immunized by subcutaneous injection of 1 mg of conjugate injected subcutaneously at four separate sites. Two booster injections were administered at bi-weekly intervals following the initial injection. The serum used in this study was collected eighty days after the initial injection. An immunoglobulin fraction of this serum was prepared by ammonium sulfate precipitation. The product of antibodies specific for immunizing peptide was monitored with a solid phase enzyme-linked immunoabsorbent assay.
Reactants were mixed in a final volume of 50 microliters of a solution containing: 20 mM sodium phosphate, at pH 7.4; 200 mM NaCl: 40 mM dithiothreitol; 0.1% (w:v) BSA; 0.1% (w:v) NaN3 : ^125 I-peptide III; (10^4 cpm); antiserum at a final dilution of 1/15,000; and other additions, as specified. The reaction was initiated by the addition of antiserum and continued at 23° C. for 90 minutes. An equal volume of 10% formalin-fixed Staphalococcus A (Pansorbin, Calbiochem) was then added and incubation was continued for an additional 30 minutes at 23° C. The immunoadsorbant was removed by sedimentation through a cushion of 10% (w:v) sucrose and the amount of bound ^125 I-peptide III was determined using a gamma counter. Under these conditions, approximately 25% of ^125 I-peptide was bound by antibody in the absence of competitor. The amount of bound peptide III was corrected for non-specific binding measured in the absence of antibody (less than 5% of the total) and expressed as a percentage of maximal binding. Concentrations of competitors were expressed as the amount of peptide III required to give an equivalent inhibition of precipitation.

Another test concerns anti-KLH-peptide 1 IgG. The test can be described thus: Solid phase RIA, 125I anti-KLH-peptide 1 IgG on BSA-peptide 1. The format is binding, rabbit. How it is done:
TGF peptide 1 was coupled to keyhole limpet hemocyanin (KLH) or bovine serum albumin (BSA) by thiol/maleimide linkage (King et al. (1979) J. Immunol. Methods 28, pp. 201-206). Carrier-peptide complexes were purified by gel filtration. An average of 60 moles peptide/mole KLH and 20 moles peptide/mole BSA was achieved. Rabbits were immunized with the KLH-peptide 1 conjugate by multiple subcutaneous (s.c.) and intramuscular (i.m.) injections of 2 mg protein in complete Freund's adjuvant. Rabbits were boosted s.c. every two weeks with the immunogen in incomplete Freund's adjuvant. The IgG fraction of the antiserum after 5 boosts was used for immunoassays and radiolabeled using Na^125 I (NEN) and Enzymobeads (Bio-Rad) to 4×10^5 cpm/μg protein. Polyvinyl chloride 96-well plates (Costar) were coated with 200 μg/mL BSA-peptide 1 conjugate and countercoated with 10% normal rabbit serum in phosphate-buffered saline. Plates were incubated for 4 hours at 37° C. with [^125 I]anti-KLH-peptide 1 IgG (50,000 cpm/well) in the presence or absence of inhibitors, washed and individual wells were counted.

Another test relates to normal rat kidney cells. The format is cell-based. Conditions: on a ng equivalent basis.

The record followed here is US4863899A, “Biologically active polypeptides” (priority 1987, dated 1989).

pIC50: −log10 of the molar value.

“EGF: mouse submaxillary gland epidermal growth factor”: the “amount required to inhibit EGF binding by 50%” value in the test with EGF receptor (0.4 ng 125I-EGF, 1 h at 22° C.) is 1.1 ng. Also, the pIC50 with EGF receptor (125I-EGF at 0.33 nM (Example XI), read-out: concentration giving half-maximal inhibition of 125I-EGF binding) was 9.30 to 9.52. For the same substance, in test [1], the “stimulation of growth in soft agar” value is “does not stimulate growth”. In addition, in test [2], the “binding of 125I-labeled rat TGF to A431 cells” value is “blocked”. The “highest concentration without inhibition of precipitation of 125I-peptide III” value in test [3] is on record as “greater than 1 μM”. The “Relative Inhibitory Activity” value in test [3] (half-maximal inhibitory concentration relative to peptide III, standard RIA, > = highest concentration tested) is recorded as more than 1500. Further, in the test with anti-KLH-peptide 1 IgG, the “inhibition of antibody reaction with BSA-TGF peptide” value is “did not cause significant inhibition”. Moreover, the “colonies in soft agar” value with normal rat kidney cells turned out to be 120 colonies. The “increase in DNA synthesis relative to unstimulated serum deprived cells” value in the test with mink fibroblasts is recorded as 59%.
